Measured values: patent publication US11123337B2, “4-methylsulfonyl-substituted piperidine urea compounds” (MYOKARDIA, INC., priority 2015, dated 2021)

These molecules were tested against bovine cardiac myosin (Bos taurus, UniProt Q9BE39) (assay: Myosin activation assay (PK/LDH-coupled ATPase, bovine cardiac myofibrils)). Details: AC20 = concentration at which total response is increased by twenty percent.
Assay type: biochemical
Description: Small molecule agents were assessed for their ability to activate the enzymatic activity of bovine cardiac myosin using a biochemical assay that couples the release of ADP (adenosine diphosphate) from cardiac myosin to an enzymatic coupling system consisting of pyruvate kinase and lactate dehydrogenase (PK/LDH) and monitoring the absorbance decrease of NADH (at 340 nm) as a function of time. PK converts ADP to ATP (adenosine triphosphate) by converting PEP (phosphoenolpyruvate) to pyruvate. Pyruvate is then converted to lactate by LDH by converting NADH (nicotinamide adenine dinucleotide) to NAD (oxidized nicotinamide adenine dinucleotide). The source of cardiac myosin was from bovine heart in the form of skinned myofibrils. Prior to testing small molecule agents, the bovine myofibrils were assessed for their calcium responsiveness and the calcium concentration that achieves either a 50% (pCa50 or pCa=˜6) or <5% (pCa=10) activation of the myofibril system was chosen as the final condition for assessing the activation activity of the small molecule agents. All enzymatic activity was measured in a buffered solution containing 12 mM PIPES (piperazine-N,N′-bis(2-ethanesulfonic acid), 2 mM magnesium chloride at pH 6.8 (PM12 buffer). Final assay conditions were 1 mg/mL of bovine cardiac myofibrils, 0.4 mM PK/LDH, 50 uM ATP, 0.1 mg/mL BSA (bovine serum albumin), 10 ppm antifoam, 2 mM BME, 0.5 mM NADH, 1.5 mM PEP at the desired free calcium concentration required to achieve either 50% or <5% activation of the myofibrils.
A dilution series of compound was created in DMSO such that the final desired concentration of compound would be achieved in a volume of […] with a fixed DMSO concentration of 3.3% (v/v). Typically a 1 μL of the dilution series was added to a 384 well plate to achieve a 10 point dose response. Following the addition of 14 μL of a solution containing bovine cardiac myofibrils, PK/LDH and a solution of calcium (that achieved the desired activation), the enzymatic reaction was started with the addition of 15 μL of a solution containing ATP, PEP and NADH. The reaction progress was followed in a PerkinElmer Envision plate reader at ambient temperature using clear bottom plates. The plate reader was configured to read absorbance at 340 nm in kinetics mode for 15 minutes. Data were recorded as the slope of the absorbance response to time. The slopes of the absorbance response as a function of time were normalized to slopes on the plate containing DMSO. This normalized rate was then plotted as a function of small molecule concentration and the data was fitted to a four-parameter fit using EXCEL XLfit. The concentration at which the total response is increased by twenty or fifty percent is reported as AC20 or AC50.

Chain of bovine cardiac myosin (Q9BE39 whole entry): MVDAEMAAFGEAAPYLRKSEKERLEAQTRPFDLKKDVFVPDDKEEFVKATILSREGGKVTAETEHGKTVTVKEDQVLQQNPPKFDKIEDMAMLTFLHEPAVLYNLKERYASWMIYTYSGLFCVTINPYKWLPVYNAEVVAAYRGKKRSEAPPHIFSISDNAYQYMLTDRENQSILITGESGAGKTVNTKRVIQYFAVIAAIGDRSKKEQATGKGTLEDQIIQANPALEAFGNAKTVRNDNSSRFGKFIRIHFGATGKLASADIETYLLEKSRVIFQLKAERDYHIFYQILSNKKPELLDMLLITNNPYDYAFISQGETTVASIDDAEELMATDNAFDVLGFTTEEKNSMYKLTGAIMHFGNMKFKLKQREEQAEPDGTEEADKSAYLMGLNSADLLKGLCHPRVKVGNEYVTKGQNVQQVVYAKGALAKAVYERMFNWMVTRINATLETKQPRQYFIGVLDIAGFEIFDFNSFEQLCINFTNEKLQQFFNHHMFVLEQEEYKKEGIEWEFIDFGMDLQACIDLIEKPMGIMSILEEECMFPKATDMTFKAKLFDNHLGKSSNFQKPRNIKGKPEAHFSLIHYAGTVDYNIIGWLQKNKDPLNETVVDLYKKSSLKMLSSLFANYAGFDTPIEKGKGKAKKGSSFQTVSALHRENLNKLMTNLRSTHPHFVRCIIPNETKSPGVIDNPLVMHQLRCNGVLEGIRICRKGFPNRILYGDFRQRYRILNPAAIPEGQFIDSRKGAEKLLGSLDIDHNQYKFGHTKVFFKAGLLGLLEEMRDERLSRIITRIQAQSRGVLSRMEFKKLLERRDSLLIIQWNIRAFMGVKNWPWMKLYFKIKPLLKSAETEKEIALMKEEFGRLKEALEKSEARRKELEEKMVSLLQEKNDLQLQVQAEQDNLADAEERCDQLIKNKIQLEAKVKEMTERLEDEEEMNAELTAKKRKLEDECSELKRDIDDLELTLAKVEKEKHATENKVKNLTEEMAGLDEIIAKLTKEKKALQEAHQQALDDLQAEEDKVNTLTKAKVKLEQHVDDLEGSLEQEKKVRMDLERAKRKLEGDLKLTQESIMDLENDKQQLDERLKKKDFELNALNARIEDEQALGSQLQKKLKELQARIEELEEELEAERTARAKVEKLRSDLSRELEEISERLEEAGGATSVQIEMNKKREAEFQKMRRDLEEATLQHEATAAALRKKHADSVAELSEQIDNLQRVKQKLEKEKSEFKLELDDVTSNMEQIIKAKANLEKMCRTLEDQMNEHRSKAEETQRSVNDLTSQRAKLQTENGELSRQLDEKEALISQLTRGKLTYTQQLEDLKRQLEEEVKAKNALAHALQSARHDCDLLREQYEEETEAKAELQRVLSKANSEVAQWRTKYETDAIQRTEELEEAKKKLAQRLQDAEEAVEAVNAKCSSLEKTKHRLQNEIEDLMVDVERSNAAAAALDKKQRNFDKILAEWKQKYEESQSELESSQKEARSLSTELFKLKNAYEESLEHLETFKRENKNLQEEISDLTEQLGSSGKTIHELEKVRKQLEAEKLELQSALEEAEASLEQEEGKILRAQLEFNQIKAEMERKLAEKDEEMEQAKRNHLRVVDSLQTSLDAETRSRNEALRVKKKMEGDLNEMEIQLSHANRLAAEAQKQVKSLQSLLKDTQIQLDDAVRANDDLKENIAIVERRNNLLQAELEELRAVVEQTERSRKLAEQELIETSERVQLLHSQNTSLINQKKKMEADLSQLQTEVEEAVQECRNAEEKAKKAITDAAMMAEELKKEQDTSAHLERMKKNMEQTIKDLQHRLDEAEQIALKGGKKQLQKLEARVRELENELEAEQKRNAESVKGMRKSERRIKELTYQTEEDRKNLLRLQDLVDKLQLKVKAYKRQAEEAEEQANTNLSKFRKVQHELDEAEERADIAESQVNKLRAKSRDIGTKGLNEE
Chain of bovine cardiac myosin (P85100 whole entry partner): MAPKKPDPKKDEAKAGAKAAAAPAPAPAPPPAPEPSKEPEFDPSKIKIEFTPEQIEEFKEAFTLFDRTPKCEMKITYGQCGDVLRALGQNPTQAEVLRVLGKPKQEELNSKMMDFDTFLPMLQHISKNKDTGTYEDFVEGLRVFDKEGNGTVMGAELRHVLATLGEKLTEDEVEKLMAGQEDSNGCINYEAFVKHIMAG
Chain of bovine cardiac myosin (Q3SZE5 whole entry partner): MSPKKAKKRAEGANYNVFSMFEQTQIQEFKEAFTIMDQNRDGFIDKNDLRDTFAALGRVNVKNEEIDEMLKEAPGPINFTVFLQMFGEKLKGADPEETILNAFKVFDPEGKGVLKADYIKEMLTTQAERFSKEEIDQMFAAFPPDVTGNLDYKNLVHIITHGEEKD

| SMILES | Myosin Activation (AC20) |
| --- | --- |
| Cc1cc(NC(=O)N2CCC([C@](C)(F)S(=O)(=O)c3cn(C)nc3C(F)F)CC2)ccn1 [Compound 233, (R)-4-(1-((3-(difluoromethyl)-1-methyl-1H-pyrazol-4-yl)sulfonyl)-1-fluoroethyl)-N-(2-methylpyridin-4-yl)piperidine-1-carboxamide] | +++ (+++ represents myosin activation value AC20 < 2 μM) |
| CC(F)(C1CCN(C(=O)Nc2ccnnc2)CC1)S(=O)(=O)c1cccc(Cl)c1 (stereo not shown) [Compound 264, 4-(1-((3-chlorophenyl)sulfonyl)-1-fluoroethyl)-N-(pyridazin-4-yl)piperidine-1-carboxamide] | +++ (+++ represents myosin activation value AC20 < 2 μM) |
| Cn1cnc(S(=O)(=O)C2(C3CCN(C(=O)Nc4ccnnc4)CC3)CCC2)c1 [Compound 173, 4-(1-((1-methyl-1H-imidazol-4-yl)sulfonyl)cyclobutyl)-N-(pyridazin-4-yl)piperidine-1-carboxamide] | + (+ represents myosin activation value AC20 > 5 μM) |
| Cc1cc(OC(F)(F)F)ccc1S(=O)(=O)C(F)(F)C1CCN(C(=O)Nc2ccnnc2)CC1 [Compound 73, 4-(difluoro((2-methyl-4-(trifluoromethoxy)phenyl)sulfonyl)methyl)-N-(pyridazin-4-yl)piperidine-1-carboxamide] | ++ (++ represents myosin activation value AC20 from 2 μM-5 μM) |
| Cn1ccc(NC(=O)N2CCC(C(C)(C)S(=O)(=O)c3cccc(F)c3)CC2)n1 [Compound 138, 4-(2-((3-fluorophenyl)sulfonyl)propan-2-yl)-N-(1-methyl-1H-pyrazol-3-yl)piperidine-1-carboxamide] | + (+ represents myosin activation value AC20 > 5 μM) |
| O=C(Nc1ccnnc1)N1CCC(C(F)(F)S(=O)(=O)c2ccc3ccnn3c2)CC1 [Compound 91, 4-(difluoro(pyrazolo[1,5-a]pyridin-6-ylsulfonyl)methyl)-N-(pyridazin-4-yl)piperidine-1-carboxamide] | ++ (++ represents myosin activation value AC20 from 2 μM-5 μM) |
| CCn1nccc1S(=O)(=O)C(C)(C)C1CCN(C(=O)Nc2ccncc2)CC1 [Compound 184, 4-(2-((1-ethyl-1H-pyrazol-5-yl)sulfonyl)propan-2-yl)-N-(pyridin-4-yl)piperidine-1-carboxamide] | ++ (++ represents myosin activation value AC20 from 2 μM-5 μM) |
| C[C@](F)(C1CCN(C(=O)Nc2ccon2)CC1)S(=O)(=O)c1cccc(F)c1 [Compound 284, (R)-4-(1-fluoro-1-((3-fluorophenyl)sulfonyl)ethyl)-N-(isoxazol-3-yl)piperidine-1-carboxamide] | +++ (+++ represents myosin activation value AC20 < 2 μM) |
| Cn1cc(S(=O)(=O)[C@@](C)(F)C2CCN(C(=O)Nc3ccc(C(N)=O)nc3)CC2)c(C(F)F)n1 [Compound 300, (R)-5-(4-(1-((3-(difluoromethyl)-1-methyl-1H-pyrazol-4-yl)sulfonyl)-1-fluoroethyl)piperidine-1-carboxamido)picolinamide] | ++ (++ represents myosin activation value AC20 from 2 μM-5 μM) |
| CC(F)(F)C(C)(C1CCN(C(=O)Nc2ccnnc2)CC1)S(=O)(=O)c1cccc(F)c1 (stereo not shown) [Compound 178, 4-(3,3-difluoro-2-((3-fluorophenyl)sulfonyl)butan-2-yl)-N-(pyridazin-4-yl)piperidine-1-carboxamide] | +++ (+++ represents myosin activation value AC20 < 2 μM) |
| CC(F)(C1CCN(C(=O)Nc2ccnnc2)CC1)S(=O)(=O)c1ccccc1C#N (stereo not shown) [Compound 56, 4-(1-((2-cyanophenyl)sulfonyl)-1-fluoroethyl)-N-(pyridazin-4-yl)piperidine-1-carboxamide] | +++ (+++ represents myosin activation value AC20 < 2 μM) |
| Cc1cc(C(F)(F)F)ccc1S(=O)(=O)C(F)(F)C1CCN(C(=O)Nc2ccnnc2)CC1 [Compound 65, 4-(difluoro((2-methyl-4-(trifluoromethyl)phenyl)sulfonyl)methyl)-N-(pyridazin-4-yl)piperidine-1-carboxamide] | ++ (++ represents myosin activation value AC20 from 2 μM-5 μM) |
| Cn1cc(S(=O)(=O)[C@@](C)(F)C2CCN(C(=O)Nc3ccnc(F)c3)CC2)c(C(F)F)n1 [Compound 297, (R)-4-(1-((3-(difluoromethyl)-1-methyl-1H-pyrazol-4-yl)sulfonyl)-1-fluoroethyl)-N-(2-fluoropyridin-4-yl)piperidine-1-carboxamide] | +++ (+++ represents myosin activation value AC20 < 2 μM) |
| CC(F)(C1CCN(C(=O)Nc2ccnnc2)CC1)S(=O)(=O)c1cccc(C#N)c1 (stereo not shown) [Compound 265, 4-(1-((3-cyanophenyl)sulfonyl)-1-fluoroethyl)-N-(pyridazin-4-yl)piperidine-1-carboxamide] | +++ (+++ represents myosin activation value AC20 < 2 μM) |
| N#Cc1ccccc1S(=O)(=O)C1(C2CCN(C(=O)Nc3ccnnc3)CC2)CC1 [Compound 200, 4-(1-((2-cyanophenyl)sulfonyl)cyclopropyl)-N-(pyridazin-4-yl)piperidine-1-carboxamide] | ++ (++ represents myosin activation value AC20 from 2 μM-5 μM) |
| CCn1nccc1S(=O)(=O)C(F)(F)C1CCN(C(=O)Nc2ccnnc2)CC1 [Compound 85, 4-(((1-ethyl-1H-pyrazol-5-yl)sulfonyl)difluoromethyl)-N-(pyridazin-4-yl)piperidine-1-carboxamide] | + (+ represents myosin activation value AC20 > 5 μM) |
| C[C@@](F)(C1CCN(C(=O)Nc2ccc(C#N)nc2)CC1)S(=O)(=O)c1cccc(F)c1 [Compound 291, (S)-N-(6-cyanopyridin-3-yl)-4-(1-fluoro-1-((3-fluorophenyl)sulfonyl)ethyl)piperidine-1-carboxamide] | + (+ represents myosin activation value AC20 > 5 μM) |
| Cc1cc(C#N)ccc1S(=O)(=O)C(F)(F)C1CCN(C(=O)Nc2ccnnc2)CC1 [Compound 52, 4-(((4-cyano-2-methylphenyl)sulfonyl)difluoromethyl)-N-(pyridazin-4-yl)piperidine-1-carboxamide] | ++ (++ represents myosin activation value AC20 from 2 μM-5 μM) |
| Cn1cc(S(=O)(=O)[C@](C)(F)C2CCN(C(=O)Nc3ccc(F)nc3)CC2)c(C(F)F)n1 [Compound 257, (S)-4-(1-((3-(difluoromethyl)-1-methyl-1H-pyrazol-4-yl)sulfonyl)-1-fluoroethyl)-N-(6-fluoropyridin-3-yl)piperidine-1-carboxamide] | + (+ represents myosin activation value AC20 > 5 μM) |
| C[C@@H](O)c1cc(NC(=O)N2CCC(C(F)(F)S(=O)(=O)c3cccc(F)c3)CC2)ccn1 [Compound 98, (R)-4-(difluoro((3-fluorophenyl)sulfonyl)methyl)-N-(2-(1-hydroxyethyl)pyridin-4-yl)piperidine-1-carboxamide] | + (+ represents myosin activation value AC20 > 5 μM) |
| CC(C1CCN(C(=O)Nc2ccncc2)CC1)S(=O)(=O)c1cccc(F)c1 (stereo not shown) [Compound 31, 4-(1-((3-fluorophenyl)sulfonyl)ethyl)-N-(pyridin-4-yl)piperidine-1-carboxamide] | ++ (++ represents myosin activation value AC20 from 2 μM-5 μM) |
| Cc1cc(S(=O)(=O)C(C)(C)C2CCN(C(=O)Nc3ccnnc3)CC2)n(C)n1 [Compound 187, 4-(2-((1,3-dimethyl-1H-pyrazol-5-yl)sulfonyl)propan-2-yl)-N-(pyridazin-4-yl)piperidine-1-carboxamide] | +++ (+++ represents myosin activation value AC20 < 2 μM) |
| COc1ccccc1S(=O)(=O)C(C)(C)C1CCN(C(=O)Nc2ccncc2)CC1 [Compound 216, 4-(2-((2-methoxyphenyl)sulfonyl)propan-2-yl)-N-(pyridin-4-yl)piperidine-1-carboxamide] | +++ (+++ represents myosin activation value AC20 < 2 μM) |
| CC(C)(C1CCN(C(=O)Nc2ccon2)CC1)S(=O)(=O)c1ccc(C#N)cc1 [Compound 102, 4-(2-((4-cyanophenyl)sulfonyl)propan-2-yl)-N-(isoxazol-3-yl)piperidine-1-carboxamide] | + (+ represents myosin activation value AC20 > 5 μM) |
| CC(F)(C1CCN(C(=O)Nc2cnns2)CC1)S(=O)(=O)c1ccc(C(F)(F)F)cc1 (stereo not shown) [Compound 268, 4-(1-fluoro-1-((4-(trifluoromethyl)phenyl)sulfonyl)ethyl)-N-(1,2,3-thiadiazol-5-yl)piperidine-1-carboxamide] | +++ (+++ represents myosin activation value AC20 < 2 μM) |
